PubChem BioAssay AID1918942 (Molecular Pharmacology Branch, DTP, NCI, 2023)

System: 743489-274-T-PDC complex spheroid viability
Assay: Anticancer human tumor 743489-274-T-PDC patient-derived renal cell carcinoma cell line growth inhibition
Settings: for IC50: curve of first compound; for viability, T/C: stronger effect = lower value
Outline: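 Drug combinations with the LSD1 inhibitor iadademstat tested on tumor cells co-cultured as spheroids with endothelial cells and mesenchymal stem cells. Concentrations descended in half-log increments from clinical Cmax or 10 microM.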
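Further: spheroids exposed to compounds for 7 days before readout.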
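Wherever viability, T/C is given: 100% = DMSO vehicle control wells.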

CCc1c2c(nc3ccc(O)cc13)-c1cc3c(c(=O)n1C2)COC(=O)[C@]3(O)CC + NC1CCC(NC2CC2c2ccccc2)CC1
IC50 (second compound 0.1 µM): 65.9 nM
IC50 (second compound 0.316 µM): 28.6 nM
IC50 (second compound 1 µM): 47.8 nM
IC50 (second compound 3.16 µM): 22.1 nM
IC50 (second compound 10 µM): 215 nM
viability, T/C (second compound 0.1 µM, first compound 0.000949 µM): 86.3%
viability, T/C (second compound 0.1 µM, first compound 0.003 µM): 68.7%
viability, T/C (second compound 0.1 µM, first compound 0.00949 µM): 62.7%
viability, T/C (second compound 0.1 µM, first compound 0.03 µM): 43.7%
viability, T/C (second compound 0.1 µM, first compound 0.0949 µM): 54.4%
viability, T/C (second compound 0.1 µM, first compound 0.3 µM): 47.8%
viability, T/C (second compound 0.316 µM, first compound 0.000949 µM): 96.8%
viability, T/C (second compound 0.316 µM, first compound 0.003 µM): 72.7%
viability, T/C (second compound 0.316 µM, first compound 0.00949 µM): 54.2%
viability, T/C (second compound 0.316 µM, first compound 0.03 µM): 46.7%
viability, T/C (second compound 0.316 µM, first compound 0.0949 µM): 49.9%
viability, T/C (second compound 0.316 µM, first compound 0.3 µM): 51.4%
viability, T/C (second compound 1 µM, first compound 0.000949 µM): 94.5%
viability, T/C (second compound 1 µM, first compound 0.003 µM): 70.6%
viability, T/C (second compound 1 µM, first compound 0.00949 µM): 70%
viability, T/C (second compound 1 µM, first compound 0.03 µM): 50.4%
viability, T/C (second compound 1 µM, first compound 0.0949 µM): 42.1%
viability, T/C (second compound 1 µM, first compound 0.3 µM): 44%
viability, T/C (second compound 3.16 µM, first compound 0.000949 µM): 95.2%
viability, T/C (second compound 3.16 µM, first compound 0.003 µM): 92.8%
viability, T/C (second compound 3.16 µM, first compound 0.00949 µM): 62.1%
viability, T/C (second compound 3.16 µM, first compound 0.03 µM): 48.2%
viability, T/C (second compound 3.16 µM, first compound 0.0949 µM): 41.3%
viability, T/C (second compound 3.16 µM, first compound 0.3 µM): 44%
viability, T/C (second compound 10 µM, first compound 0.000949 µM): 89.8%
viability, T/C (second compound 10 µM, first compound 0.003 µM): 79.1%
viability, T/C (second compound 10 µM, first compound 0.00949 µM): 64.5%
viability, T/C (second compound 10 µM, first compound 0.03 µM): 69.4%
viability, T/C (second compound 10 µM, first compound 0.0949 µM): 51.3%
viability, T/C (second compound 10 µM, first compound 0.3 µM): 48.5%
